{"source": "patent US20250241948A1", "about": "“Engineered Extracellular Vesicle Delivery Systems and Uses Thereof” (The Texas A&M University System, priority 2020, published 2025)", "format_in_all_cases": "cell-based, human", "key": {"[1]": {"system": "GFP-expressing A549 cells", "assay": "siRNA-mediated GFP knockdown", "conditions": "lipid-siRNA complexes following electroporation, no EV", "protocol": "Quantification of siRNA knockdown in A549 cells: To evaluate the knockdown efficiency of EV-mediated siRNA delivery within the constitutively expressing-GFP-A549 cells over time, GFP fluorescence was measured and quantified using a plate reader (Cytation 5) every day for 12 days (34). To ensure the decrease of green fluorescence intensity is due to the RNA interference of GFP-siRNA in the cells and not caused by the cytotoxicity of the delivery system, each sample type or condition was delivered with scrambled siRNA as a control. The knockdown efficiency was calculated using the below equation: […]\nwhere Fsi is the fluorescence of the well using GFP-siRNA, Fsc is the fluorescence of the well using corresponding scrambled siRNA, Fbg is the fluorescence background of the media without cells, Fosi is the initial fluorescence of the well just prior to delivery for the GFP-siRNA formulations and Fosc is the initial fluorescence of the well prior to delivery of the corresponding scrambled siRNA control group. Commercial Lipofectamine® RNAiMax formulation was used as a positive control to compare the knockdown efficiency between samples. The formulation was prepared according to the manufacturer's instruction. Briefly, 0.3 μl of Lipofectamine® RNAiMax was used to deliver 1 pmol of siRNA. […] Area under the curve (knockdown efficiency vs time) was calculated to determine the difference in duration using GraphPad Prism 7 software.\nsiRNA knockdown efficiency: To evaluate the knockdown efficiency of LbL-EV mediated siRNA delivery within GFP-expressing A549 cells, GFP fluorescence was measured and quantified using the same apparatus (Cytation 5) every day as previously described (34, 63). The knockdown efficiency of siRNA-GFP was calculated by normalizing each sample type/condition to each individual negative control treated with scrambled siRNA. […] Area under the curve (knockdown efficiency vs time) was calculated by GraphPad Prism 7 software to determine the overall knockdown efficiency of each condition. […]"}, "A549 cells": {"system": "A549 cells", "assay": "DOX cancer killing efficiency (MTS assay)", "conditions": "A549, 3 days incubation", "protocol": "(§1) DOX cancer killing efficiency: The effects of DOX-loaded vesicles on A549/CCL210 cells were done by CellTiter 96® Aqueous Cell Proliferation assay (Promega) (MTS assay) to assess relative metabolic activity of the cells. Prior to MTS treatment, DOX-loaded vesicles were incubated with cultured A549/CCL210 cells at 60-70% confluency for 3 days at varying doses. The MTS assays were conducted after incubation for 3 days, following the manufacturer's instructions. Untreated A549 or CCL210 cells were used as positive control groups (assuming 100% metabolic activity) for normalization. Free DOX (unencapsulated) and DOX-loaded PLGA NPs were prepared as comparison groups. To obtain dose-response curves, metabolic activity was plotted versus the amount of DOX administered, which was determined based on spectrophotometric analysis of eEV/LbL-eEV/PLGA NPs. The sigmoidal dose-response curves were fitted with Hill's equation using GraphPad software: […]\n(§2) where Max is the Y value at the top plateau and Min is the Y value at the bottom plateau. IC50 (inhibitory concentration, 50%) is the X value when the response is halfway between Min and Max."}, "CCL-210 cells": {"system": "CCL-210 cells", "assay": "DOX cancer killing efficiency (MTS assay)", "conditions": "CCL210, 3 days incubation", "protocol": "as §1, §2"}}}
{"molecule": "CCCCCCCCCCCCCCCC(=O)OC[C@H](COP(=O)([O-])OCC[N+](C)(C)C)OC(=O)CCCCCCCCCCCCCCC", "note": "[DPPC, 1,2-dipalmitoyl-sn-glycero-3-phosphocholine]", "values": [{"measurement": "GFP down-regulation by lipid-siRNA complexes", "setting": "[1]", "value": "not able to down-regulate GFP expression"}]}
{"molecule": "COc1cccc2c1C(=O)c1c(O)c3c(c(O)c1C2=O)C[C@@](O)(C(=O)CO)C[C@@H]3O[C@H]1C[C@H](N)[C@H](O)[C@H](C)O1", "note": "[Free DOX, doxorubicin]", "values": [{"measurement": "IC10 of DOX", "setting": "A549 cells", "value": 0.510, "unit": "μ/ml"}, {"measurement": "IC90 of DOX", "setting": "A549 cells", "value": 0.690, "unit": "μ/ml"}, {"measurement": "IC10 of DOX", "setting": "CCL-210 cells", "value": 0.200, "unit": "μ/ml"}, {"measurement": "IC50 of DOX", "setting": "CCL-210 cells", "value": "0.400 ± 0.024", "unit": "μ/ml"}, {"measurement": "IC90 of DOX", "setting": "CCL-210 cells", "value": 0.780, "unit": "μ/ml"}]}
{"molecule": "CCCCCCCC/C=C\\CCCCCCCC(=O)O[C@H](COC(=O)CCCCCCCCCCCCCCC)COP(=O)([O-])OCC[N+](C)(C)C", "note": "[POPC, 1-Palmitoyl-2-oleoyl-sn-glycero-3-phosphocholine]", "values": [{"measurement": "GFP down-regulation by lipid-siRNA complexes", "setting": "[1]", "value": "not able to down-regulate GFP expression"}]}
{"molecule": "CCCCCCCC/C=C\\CCCCCCCC(=O)O[C@H](COC(=O)CCCCCCCCCCCCCCC)COP(=O)(O)OCC(O)CO", "note": "(some centres unmarked) [POPG, 1-Palmitoyl-2-oleoyl-sn-glycero-3-phosphoglycerol]", "values": [{"measurement": "GFP down-regulation by lipid-siRNA complexes", "setting": "[1]", "value": "not able to down-regulate GFP expression"}]}
